Target: T1, KDM2A (Homo sapiens, UniProt Q9Y2K7)
T1 construct: host or cells: Sf9 cells
T1 sequence (Q9Y2K7 1-1162): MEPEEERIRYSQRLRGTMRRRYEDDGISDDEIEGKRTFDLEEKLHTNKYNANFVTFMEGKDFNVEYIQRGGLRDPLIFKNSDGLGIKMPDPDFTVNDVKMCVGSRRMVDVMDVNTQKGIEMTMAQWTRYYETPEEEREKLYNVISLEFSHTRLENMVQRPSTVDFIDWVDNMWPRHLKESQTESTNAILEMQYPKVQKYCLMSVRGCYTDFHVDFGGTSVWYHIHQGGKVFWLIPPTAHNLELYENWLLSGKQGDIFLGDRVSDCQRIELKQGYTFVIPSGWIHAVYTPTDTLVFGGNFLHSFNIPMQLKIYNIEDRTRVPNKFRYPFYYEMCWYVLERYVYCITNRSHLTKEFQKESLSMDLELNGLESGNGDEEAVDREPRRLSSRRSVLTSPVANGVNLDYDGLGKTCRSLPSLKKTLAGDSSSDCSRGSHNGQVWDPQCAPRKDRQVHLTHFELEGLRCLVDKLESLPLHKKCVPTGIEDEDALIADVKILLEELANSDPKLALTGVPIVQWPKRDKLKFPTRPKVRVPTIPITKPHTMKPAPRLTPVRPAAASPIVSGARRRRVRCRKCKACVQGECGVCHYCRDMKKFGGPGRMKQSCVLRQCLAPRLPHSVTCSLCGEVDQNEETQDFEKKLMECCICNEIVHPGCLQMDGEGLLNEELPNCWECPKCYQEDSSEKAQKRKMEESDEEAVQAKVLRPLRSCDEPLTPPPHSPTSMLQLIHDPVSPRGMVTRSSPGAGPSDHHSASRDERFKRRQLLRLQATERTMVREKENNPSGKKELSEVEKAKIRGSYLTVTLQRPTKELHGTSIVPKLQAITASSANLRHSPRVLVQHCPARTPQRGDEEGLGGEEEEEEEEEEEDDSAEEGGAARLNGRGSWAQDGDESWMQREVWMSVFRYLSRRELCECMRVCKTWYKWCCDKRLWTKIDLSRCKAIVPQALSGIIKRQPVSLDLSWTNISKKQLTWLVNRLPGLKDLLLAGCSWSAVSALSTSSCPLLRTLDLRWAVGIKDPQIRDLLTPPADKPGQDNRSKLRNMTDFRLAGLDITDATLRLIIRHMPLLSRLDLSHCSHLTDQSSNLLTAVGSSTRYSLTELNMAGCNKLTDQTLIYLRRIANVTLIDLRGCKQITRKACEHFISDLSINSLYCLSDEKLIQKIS
Experiment: Biochemical KDM inhibition assay (LANCE), KDM2A
Details: read-out: Biochemical IC50 KDM 2A
Description: Representative compounds were characterized for their inhibition of KDM5 using biotinylated histone substrates. Inhibition was measured in vitro (CEREP Poitier, Le Bois l'Evêque, France) following experimental conditions described in Table 2. Briefly, the test compound, reference compound or water (control) was mixed with about 2-20 ng of recombinant, Human enzymes expressed in Sf9 cells in a buffer containing 45 mM Hepes/Tris (pH 7), 5 μM FAS, 100 μM ascorbic acid, 10 μM 2-oxoglutarate, 0.01% Tween 20 and 0.01% BSA. Thereafter, the reaction was initiated by adding the biotin-labeled substrate, and the mixture was incubated for 10-30 min at room temperature. For basal control measurements, the enzyme was omitted from the reaction mixture. Following incubation the reaction was stopped by adding 1 mM EDTA. After 5 min, the anti-methyl histone antibody labeled with europium chelate and the Ulight streptavidine (Perkin Elmer Waltham, Mass.) were added. After 60 min more, the fluorescence transfer was measured at λex=320 nm and λem=620 and λem=665 nm using a microplate reader (Envision, Perkin Elmer) (LANCE). The enzyme activity was determined by dividing the signal measured at λem=665 nm by that measured at 620 nm (ratio).

Structure (SMILES) | IC50 [nM]
Nc1c(C(=O)O)ccnc1C(=O)O [Example 7, reference compound] | 360
Cc1cc(Cl)ccc1COc1ccnn1-c1cc(C(=O)O)ccn1 [Example 11] | 450
O=C(O)c1ccncc1Nc1nn(CCN2CCC(F)(F)CC2)c2ccc(F)cc12 [Example 13] | 510
CCN(CCN(C)C)C(=O)CNCc1cc(C(=O)O)ccn1 [Example 9] | 650
CCN(CC)CCCCNCc1cc(C(=O)O)ccn1 [Example 18] | 2000

Target: T2, KDM3A (Homo sapiens, UniProt Q9Y4C1)
T2 construct: host or cells: Sf9 cells
T2 sequence (Q9Y4C1 1-1321): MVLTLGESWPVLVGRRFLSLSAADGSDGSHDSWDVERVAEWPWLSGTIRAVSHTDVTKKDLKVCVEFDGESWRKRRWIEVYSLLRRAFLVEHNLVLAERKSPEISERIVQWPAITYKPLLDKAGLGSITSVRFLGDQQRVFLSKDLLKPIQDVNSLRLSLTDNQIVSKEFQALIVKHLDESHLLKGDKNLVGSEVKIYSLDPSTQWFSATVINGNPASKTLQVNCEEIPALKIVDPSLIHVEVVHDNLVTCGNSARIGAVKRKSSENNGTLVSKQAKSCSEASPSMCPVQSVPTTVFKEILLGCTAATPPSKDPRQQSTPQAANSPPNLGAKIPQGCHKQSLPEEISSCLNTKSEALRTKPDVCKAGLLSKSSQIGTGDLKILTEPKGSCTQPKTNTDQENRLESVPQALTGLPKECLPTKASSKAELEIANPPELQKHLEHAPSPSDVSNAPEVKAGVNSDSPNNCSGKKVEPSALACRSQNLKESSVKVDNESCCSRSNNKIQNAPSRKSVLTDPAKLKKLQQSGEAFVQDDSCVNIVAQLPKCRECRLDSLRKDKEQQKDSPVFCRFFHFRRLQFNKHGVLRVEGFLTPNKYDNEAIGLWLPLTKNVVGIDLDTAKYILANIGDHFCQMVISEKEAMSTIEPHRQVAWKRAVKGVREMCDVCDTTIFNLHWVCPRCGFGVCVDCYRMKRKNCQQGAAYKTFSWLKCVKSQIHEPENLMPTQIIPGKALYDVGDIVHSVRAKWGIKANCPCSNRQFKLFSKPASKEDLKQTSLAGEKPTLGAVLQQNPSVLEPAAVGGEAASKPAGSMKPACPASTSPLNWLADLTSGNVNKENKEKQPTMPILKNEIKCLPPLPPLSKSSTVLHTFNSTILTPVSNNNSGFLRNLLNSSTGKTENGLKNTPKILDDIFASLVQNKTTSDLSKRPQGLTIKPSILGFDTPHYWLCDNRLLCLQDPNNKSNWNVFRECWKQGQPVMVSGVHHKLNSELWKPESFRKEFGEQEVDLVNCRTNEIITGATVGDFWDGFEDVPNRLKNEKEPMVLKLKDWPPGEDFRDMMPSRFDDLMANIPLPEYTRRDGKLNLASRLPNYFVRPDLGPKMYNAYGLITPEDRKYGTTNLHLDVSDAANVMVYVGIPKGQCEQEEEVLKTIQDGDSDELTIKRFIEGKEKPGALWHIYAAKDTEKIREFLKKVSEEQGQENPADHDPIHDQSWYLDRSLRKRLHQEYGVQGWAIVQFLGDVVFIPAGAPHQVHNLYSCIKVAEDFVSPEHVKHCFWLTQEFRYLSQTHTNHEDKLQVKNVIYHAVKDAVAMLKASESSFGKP
Experiment: Biochemical KDM inhibition assay (LANCE), KDM3A
Details: read-out: Biochemical IC50 KDM 3A

Structure (SMILES) | IC50 [nM]
Nc1c(C(=O)O)ccnc1C(=O)O [Example 7, reference compound] | 1200
Cc1cc(Cl)ccc1COc1ccnn1-c1cc(C(=O)O)ccn1 [Example 11] | 7500
N#CNC(=O)c1ccncc1Nc1nn(CCN2CCC(F)(F)CC2)c2ccc(F)cc12 [Example 14] | 3900
CCN(CCN(C)C)C(=O)CNCc1cc(C(=O)O)ccn1 [Example 9] | 1100
CCN(CC)CCCCNCc1cc(C(=O)O)ccn1 [Example 18] | 5400

Tested on: HBV
Experiment: Determination of HBV viral RNA by RT-qPCR in PHH
Type: cell-based
Details: Hepatitis B virus, read-out: HBV RNA EC50
Description: HBV antiviral activity was assessed in primary human hepatocytes (PHH) in a 96-well format. PHH were (Life Technologies, Chicago, 11) plated on collagen coated tissue culture plates using Plating Media containing William's Medium E supplemented with 1% Penicillin/Streptomycin, 4 μg/mL human recombinant insulin, 2 mM glutamax, 15 mM Hepes, 1 μM dexamethasone and 5% fetal bovine serum (Life Technologies, Cat#A12176-01 Life Technologies, Chicago, Ill.). After a 4-hour incubation at 37° C., cells were switched to Maintenance Media (Cat#CM4000-A15564 Life Technologies, Chicago, Ill.) containing William's Medium E supplemented with 0.5% Penicillin/Streptomycin, 6.25 μg/mL human recombinant insulin, 6.25 μg/mL human transferrin, 6.25 ng/mL selenous acid, 1.25 mg/mL bovine serum albumin, 5.35 μg/mL linoleic acid, 2 mM glutamax, 15 mM Hepes, 0.1 μM dexamethasone, 2% fetal bovine serum, and 2% DMSO (Cat#D2650 Sigma, St. Louis, Mo.). On the next day, cells were infected with approximately 500 genome equivalent of selected HBV clinical isolates (21P (GTA), 32P (GTA), 91P (GTA), AD38 (GTD), 65P (GTD) or 30P (GTE); ProteoGenex, Culver City, Calif.) per cell in Maintenance Media supplemented with 4% PEG 8000 (Cat#V3011 Promega, Madison, Wis.). After 24 hour incubation cells were washed three times with William's Medium E and fed with fresh Maintenance Media. Small molecule inhibitors targeting KDMs were serially diluted in Maintenance Media and added to cells at 3 days post infection (p.i.). Media with compounds was replenished every 2-3 days. Media collected on various days was used for determination of HBsAg and HBeAg levels by MSD ELISA, and HBV RNA by qPCR. All data were converted into percentages of the untreated control and non-linear regression was performed to calculate EC50 or CC50 values.
Following the Alamar Blue measurement, media was removed and total RNA from the cells was isolated using the RNeasy 96 Kit (Cat#74182 Qiagen, Venlo, Netherlands). […] GAPDH mRNA levels were also measured by RT-qPCR to control for differences in cell number, toxicity, and RNA purification efficiency (Cat#4390849 Life Technologies, Chicago Ill.). HBV mRNA Ct values were normalized using their cognate GAPDH mRNA Ct values by the delta-delta-Ct calculation and then expressed as a percentage of the non-targeting scrambled control.

Structure (SMILES) | EC50 [nM]
CCOC(=O)c1ccnc(CNCC(=O)N(CC)CCN(C)C)c1 [Example 8] | 100

Same assay, conditions: Hepatitis B virus; HBV-infected PHH; read-out: HBV RNA EC50

Structure (SMILES) | EC50 [nM]
Nc1c(C(=O)O)ccnc1C(=O)O [Example 7, reference compound] | 224
